Experimental data published in the CheMixHub drug solubility set.

Experiment: xn = mol fraction of the nth substance listed, in the solute-free solvent

CN1CCN(C(=O)OC2c3nccnc3C(=O)N2c2ccc(Cl)cn2)CC1 (stereo unspecified) + CC(C)=O + O
solubility (g/100 g solution)
Details	x2 = 0.3	x2 = 0.4	x2 = 0.5	x2 = 0.6	x2 = 0.7	x2 = 0.8	x2 = 0.9
288.15 K	0.188	0.322	0.515	0.825	1.17	1.47	1.48
298.15 K	0.259	0.425	0.644	1.04	1.52	1.9	1.94
308.15 K	0.354	0.615	1.04	1.46	1.99	2.44	2.5
318.15 K	0.545	0.801	1.35	1.88	2.53	3.29	3.5
328.15 K	0.752	1.18	1.75	2.51	3.5	4.63	4.6

O=[N+]([O-])c1cc[nH]n1 + CC(C)=O + O
solubility (g/100 g solution)
Details	283.15 K	288.15 K	293.15 K	298.15 K	303.15 K	308.15 K	313.15 K	318.15 K	323.15 K
x2 = 0.03333	0.251	0.321	0.373	0.471	0.552	0.72	0.876	1.07	1.32
x2 = 0.07199	0.297	0.351	0.41	0.49	0.576	0.71	0.865	1.05	1.29
x2 = 0.1174	0.313	0.362	0.422	0.501	0.594	0.708	0.855	1.05	1.29
x2 = 0.1714	0.322	0.371	0.43	0.507	0.597	0.705	0.853	1.05	1.24
x2 = 0.2368	0.324	0.369	0.426	0.491	0.573	0.683	0.813	0.984	1.17
x2 = 0.3176	0.319	0.37	0.422	0.487	0.564	0.662	0.79	0.932	1.11
x2 = 0.42	0.324	0.366	0.414	0.476	0.543	0.637	0.749	0.871	0.999
x2 = 0.5538	0.306	0.354	0.398	0.457	0.527	0.614	0.722	0.873	1.02
x2 = 0.7363	0.299	0.349	0.397	0.461	0.515	0.576	0.678	0.794	0.916

CC(=O)Nc1ccc(OC(=O)c2ccccc2OC(C)=O)cc1 + CC(C)O + O
solubility (g/100 g solution)
Details	278.15 K	283.15 K	288.15 K	293.15 K	298.15 K	303.15 K	308.15 K	313.15 K	318.15 K
x2 = 0.03225	0.00278	0.00407	0.0057	0.00819	0.0115	0.0161	0.0217	0.0296	0.0399
x2 = 0.06974	0.0072	0.0102	0.0142	0.0195	0.0268	0.0367	0.0481	0.0636	0.0846
x2 = 0.1139	0.015	0.0212	0.0289	0.0402	0.0537	0.0718	0.0958	0.126	0.162
x2 = 0.1666	0.0246	0.0342	0.0466	0.0633	0.0855	0.114	0.148	0.195	0.252
x2 = 0.2307	0.0358	0.0489	0.0678	0.0921	0.124	0.165	0.217	0.285	0.371
x2 = 0.3103	0.0475	0.0662	0.0897	0.123	0.163	0.215	0.29	0.374	0.488
x2 = 0.4117	0.0571	0.0787	0.109	0.148	0.197	0.26	0.341	0.445	0.574
x2 = 0.5454	0.0663	0.0911	0.125	0.167	0.221	0.295	0.381	0.494	0.642
x2 = 0.7297	0.0717	0.097	0.131	0.177	0.239	0.315	0.412	0.525	0.68

COC(=O)C1=C(C)NC(C)=C(C(=O)OCC(C)C)C1c1ccccc1[N+](=O)[O-] (stereo unspecified) + CC(C)O + O
solubility (g/100 g solution)
Details	278.15 K	283.15 K	288.15 K	293.15 K	298.15 K	303.15 K	308.15 K	313.15 K	318.15 K
x2 = 0.06974	0.651	0.819	1.02	1.25	1.49	1.76	2.04	2.35	2.71
x2 = 0.1666	1.78	2.22	2.67	3.18	3.8	4.49	5.28	6.22	7.31
x2 = 0.3103	2.4	2.84	3.46	4	4.73	5.54	6.37	7.36	8.44
x2 = 0.5454	3.18	3.82	4.5	5.27	6.2	7.21	8.34	9.68	11.1

CS(=O)(=O)c1ccc(C(O)C(CF)NC(=O)C(Cl)Cl)cc1 (stereo unspecified) + CC(C)O + O
solubility (g/100 g solution)
Details	278.15 K	283.15 K	288.15 K	293.15 K	298.15 K	303.15 K	308.15 K	313.15 K	318.15 K
x2 = 0.03225	0.082	0.109	0.146	0.189	0.246	0.32	0.403	0.515	0.641
x2 = 0.06974	0.117	0.159	0.216	0.278	0.362	0.488	0.613	0.798	1
x2 = 0.1139	0.16	0.215	0.286	0.379	0.504	0.64	0.828	1.06	1.35
x2 = 0.1666	0.199	0.266	0.353	0.472	0.608	0.787	1.01	1.29	1.64
x2 = 0.2307	0.237	0.317	0.422	0.56	0.717	0.931	1.19	1.5	1.88
x2 = 0.3103	0.276	0.367	0.481	0.629	0.81	1.05	1.34	1.67	2.1
x2 = 0.4117	0.296	0.398	0.516	0.669	0.873	1.14	1.42	1.78	2.24
x2 = 0.5454	0.308	0.411	0.536	0.702	0.9	1.16	1.47	1.89	2.32
x2 = 0.7297	0.309	0.407	0.537	0.697	0.911	1.14	1.47	1.84	2.29

O=C(CC(=O)c1ccccc1)c1ccccc1 + CC(C)O + O
solubility (g/100 g solution)
Details	278.15 K	283.15 K	288.15 K	293.15 K	298.15 K	303.15 K	308.15 K	313.15 K	318.15 K
x2 = 0.2	0.0987	0.114	0.14	0.185	0.222	0.277	0.338	0.422	0.528
x2 = 0.4	0.264	0.353	0.459	0.618	0.711	1.05	1.26	1.73	4.77
x2 = 0.6	0.61	0.936	1.23	1.34	1.47	1.91	2.36	3.27	4.94
x2 = 0.8	0.977	1.43	1.48	2.1	2.32	2.93	3.69	4.5	7.02

O=c1[nH]cc(F)c(=O)[nH]1 + CCCO + C1CCOC1
solubility (g/100 g solution)
Details	283.15 K	288.15 K	293.15 K	298.15 K	303.15 K	308.15 K	313.15 K	318.15 K	323.15 K
x2 = 0.2307	0.148	0.169	0.195	0.226	0.263	0.313	0.373	0.452	0.536
x2 = 0.4444	0.17	0.196	0.225	0.258	0.299	0.351	0.42	0.496	0.588
x2 = 0.6428	0.201	0.229	0.258	0.297	0.34	0.397	0.467	0.543	0.625
x2 = 0.8276	0.228	0.263	0.298	0.34	0.393	0.457	0.539	0.651	0.763
